From paper PMC5053481, “Structural Insights into the Methylation of C1402 in 16S rRNA by Methyltransferase RsmI” (PLoS ONE, 2016)
Each block holds one molecule with its values, some of them ahead of it.

Experiments:
RsmI (G12-P258) = RsmI (G12-P258) (Escherichia coli, UniProt P67087); test: X-ray crystal structure, […] Å; assay type: binding; details: co-crystallised, AdoMet:RsmI 5:1; site between NTD and CTD
RsmI (full-length) [1] = target: RsmI (full-length) (Escherichia coli, UniProt P67087, F144A); test: isothermal titration calorimetry, one-site model; assay type: binding; details: read-out: Ka (10^4/M) (converted)
Chain of RsmI (full-length) (Escherichia coli, UniProt P67087, F144A) (P67087 whole entry F144A): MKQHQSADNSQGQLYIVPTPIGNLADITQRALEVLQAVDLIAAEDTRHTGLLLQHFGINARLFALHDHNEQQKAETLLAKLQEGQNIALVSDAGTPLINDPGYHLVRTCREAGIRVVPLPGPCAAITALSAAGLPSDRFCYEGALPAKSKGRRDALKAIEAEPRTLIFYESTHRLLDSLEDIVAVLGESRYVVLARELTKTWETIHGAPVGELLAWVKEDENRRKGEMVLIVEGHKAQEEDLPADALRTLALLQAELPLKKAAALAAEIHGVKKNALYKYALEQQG

RsmI (full-length) [2] = target: RsmI (full-length) (Escherichia coli, UniProt P67087, Y169A); test: isothermal titration calorimetry, one-site model; assay type: binding; details: read-out: Ka (10^4/M) (converted)
Chain of RsmI (full-length) (Escherichia coli, UniProt P67087, Y169A) (P67087 whole entry Y169A): as the sequence (P67087 whole entry F144A) above, with A144F, Y169A counted along it

RsmI (full-length) [3] = target: RsmI (full-length) (Escherichia coli, UniProt P67087); test: isothermal titration calorimetry, one-site model; assay type: binding; details: read-out: Ka (10^4/M) (converted)
Chain of RsmI (full-length) (Escherichia coli, UniProt P67087) (P67087 whole entry): as the sequence (P67087 whole entry F144A) above, with A144F counted along it

[4] = target: the molecule itself; test: SEC; gel filtration on Superdex 200 10/300 GL; purified RsmI (Gly12-Pro258) eluted at 15.0 ml, compared with protein standards

Kd (RsmI (full-length) [1]): 67.6 µM
Kd (RsmI (full-length) [2]): 24.2 µM
Kd (RsmI (full-length) [3]): 23.3 µM
Molecule: C[S+](CC[C@H](N)C(=O)O)C[C@H]1O[C@@H](n2cnc3c(N)ncnc32)[C@H](O)[C@@H]1O (some centres unmarked) [AdoMet]
X-ray crystal structure, 2.20 Å (RsmI (G12-P258)): coordinate and structure factor of RsmI-AdoMet complex have been deposited with the RCSB PDB

B1: RsmI truncation Gly12-Pro258 (E. coli 16S rRNA 2'-O-methyltransferase RsmI) (domain or fragment, Escherichia coli, UniProt P67087 12-258, looked up)
chain: GQLYIVPTPIGNLADITQRALEVLQAVDLIAAEDTRHTGLLLQHFGINARLFALHDHNEQQKAETLLAKLQEGQNIALVSDAGTPLINDPGYHLVRTCREAGIRVVPLPGPCAAITALSAAGLPSDRFCYEGFLPAKSKGRRDALKAIEAEPRTLIFYESTHRLLDSLEDIVAVLGESRYVVLARELTKTWETIHGAPVGELLAWVKEDENRRKGEMVLIVEGHKAQEEDLPADALRTLALLQAELP
notes: RsmI, AdoMet-dependent methyltransferase for 2'-O-methylation of C1402 in 16S rRNA, Escherichia coli, residues Gly12-Pro258; It was co-crystallised with the cofactor AdoMet; The asymmetric unit holds three molecules: one non-crystallographic dimer and one half of a crystallographic dimer; also called RmsI; RsmI (G12-P258); source: expressed and purified as reported previously [15]
stoichiometry N [4]: 2
